Tests used:
[1] = biological target: T1, ADO-induced prolongation of the atrio-to-His bundle conduction time (Cavia porcellus, UniProt P47745); experiment: Inhibition of ADO-induced prolongation of the atrio-to-His bundle conduction time in isolated, perfused guinea-pig heart; conditions: five animals; 5 μm ADO infusion; Eadie-Scatchard plot of %INH; read-out: mean Kd(50)
T1 construct: isolated, perfused guinea-pig heart preparations; from tissue; host or cells: isolated, perfused guinea-pig heart
T1 sequence (P47745 1-326): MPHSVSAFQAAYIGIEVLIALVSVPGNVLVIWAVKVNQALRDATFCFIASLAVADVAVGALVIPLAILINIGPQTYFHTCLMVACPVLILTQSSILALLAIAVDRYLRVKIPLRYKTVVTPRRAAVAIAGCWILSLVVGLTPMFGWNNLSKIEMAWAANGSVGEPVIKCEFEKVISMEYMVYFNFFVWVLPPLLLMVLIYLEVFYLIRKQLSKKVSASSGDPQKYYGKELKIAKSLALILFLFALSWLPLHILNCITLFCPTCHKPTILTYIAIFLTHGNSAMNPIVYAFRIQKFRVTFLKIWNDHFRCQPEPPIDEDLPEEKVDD
Method: The ability of (E)-4-(1,2,3,6-tetrahydro-1,3-dimethyl-2,6-dioxo-9H-purin-8-yl)cinnamic acid to inhibit ADO-induced prolongation of the atrio-to-His bundle conduction time and, thus, its potential for the treatment of cardiac disorders including heart block, was evaluated in isolated, perfused guinea-pig heart preparations.
Male and female guinea-pigs were sacrificed by a blow to the head, and their hearts were quickly removed. The heart was then hung on a retro-grade aortic infusion apparatus. […]
Pacing was initiated at a rate that ensured one to one capture and later was set to 2-3 Hz. […] Two antagonists were evaluated per guinea-pig. […]
A.V. conduction times were measured from the HBE and LAE. […] Differences were then calculated by subtracting the control interval in question. Percentage ADO prolongation inhibition (%INH) was calculated by subtracting the A-A difference from the ADO difference, dividing by ADO difference, and multiplying by 100, thus %INH=(ADO diff.-ant. diff.)/ADO diff.*100.
The Kd(50) was then evaluated by an Fadie-Scatchard plot, where (%INH)/(antagonist conc.) was plotted on the ordinate and %INH on the abscissa. […]

[2] = Standard LD50 test, intraperitoneal, mice; conditions: mouse, in vivo, ip
Method: The toxicity of a representative number of compounds of the present invention was determined by using the standard LD50 test.

purine receptors = biological target: T2, purine receptors (Cavia porcellus, UniProt P47745); experiment: Purine receptor antagonism in guinea pig ileum twitch test (agonist 2-chloroadenosine, Schild regression); conditions: for slope (Schild regression): value in brackets beside pA2, guinea pig ileum; for Kb: vs 2-chloroadenosine, Schild regression, may be considered the pKb, read-out: pA2 Guinea pig ileum (converted)
T2 construct: Ilea were removed from sacrificed guinea pigs and placed in organ baths; from tissue; host or cells: guinea pig ileum
T2 sequence (P47745 1-326): T1 sequence (P47745 1-326)
Method: Accordingly, a representative number of compounds of the present invention were tested for their ability to antagonise the purine receptors using the guinea pig ileum test system.
Ilea were removed from sacrificed guinea pigs and placed in organ baths containing oxygenated Krebs-Henseleit buffer. After equilibration, the ilea were stimulated to contract (twitch contraction) using an electrical field-stimulus of 0.1 Hz, 0.05 ms duration and maximal voltage. Under these conditions, the twitch contraction results from the release of acetylcholine.
Concentration response curves to the purine agonist, 2-chloroadenosine, were determined first in the absence and then in the presence of multiple concentrations of the compounds of the invention. One concentration of each compound was used per tissue. Quantification of purine receptor antagonism was accomplished using the Schild regression technique, i.e. plots of log (dose-ratio-1) vs log compound concentration, and the pA2 determined by regression of the data points to the x-intercept, where log (dose-ratio-1) is zero.

Row | SMILES | Kd [1] [nM] | LD50 [2] [mg/kg] | slope (Schild regression) (purine receptors) | Kb (purine receptors) [nM]
1 | Cn1c(=O)c2nc(-c3ccc(/C=C/C(=O)O)cc3)[nH]c2n(C)c1=O [Example 1, (E)-4-(1,2,3,6-tetrahydro-1,3,-dimethyl-2,6-dioxo-9H-purin-8-yl)cinnamic acid] | 190 | > 500 |  | 
2 | CCCn1c(=O)c2nc(-c3ccc(/C=C/C(=O)O)cc3)[nH]c2n(CCC)c1=O [Example 6, (E)-4-(1,2,3,6-tetrahydro-2,6-dioxo-1,3-dipropyl-9H-purin-8-yl)cinnamic acid] |  | > 500 | 0.9 | 20
3 | CC(C)Cn1c(=O)[nH]c(=O)c2nc(-c3ccc(/C=C/C(=O)O)cc3)[nH]c21 [Example 10, (E)-4-(1,2,3,6-tetrahydro-3-isobutyl-2,6-dioxo-9H-purin-8-yl)cinnamic acid] |  | > 100 |  | 
4 | CCCn1c(=O)n(C)c(=O)c2nc(-c3ccc(/C=C/C(=O)O)cc3)[nH]c21 [Example 11, (E)-4-(1,2,3,6-tetrahydro-1-methyl-2,6-dioxo-3-propyl-9H-purin-8-yl)cinnamic acid] |  |  | 1.0 | 100
5 | CC(C)Cn1c(=O)n(C)c(=O)c2nc(-c3ccc(/C=C/C(=O)O)cc3)[nH]c21 [Example 12, (E)-4-(1,2,3,6-tetrahydro-3-isobutyl-1-methyl-2,6-dioxo-9H-purin-8-yl)cinnamic acid] |  | > 100 |  | 
6 | CCCCn1c(=O)c2nc(-c3ccc(/C=C/C(=O)O)cc3)[nH]c2n(CCCC)c1=O [Example 14, (E)-4-(1,3-dibutyl-1,2,3,6-tetrahydro-2,6-dioxo-9H-purin-8-yl)cinnamic acid] |  | > 100 | 1.0 | 31.6
7 | O=C(O)/C=C/c1ccc(-c2nc3c(=O)n(Cc4ccccc4)c(=O)n(Cc4ccccc4)c3[nH]2)cc1 [Example 15, (E)-4-(1,3-dibenzyl-1,2,3,6-tetrahydro-2,6-dioxo-9H-purin-8-yl)cinnamic acid] |  |  | 0.9 | 79.4
8 | CCCCn1c(=O)n(C)c(=O)c2nc(-c3ccc(/C=C/C(=O)O)cc3)[nH]c21 [Example 16, (E)-4-(3-butyl-1,2,3,6-tetrahydro-1-methyl-2,6-dioxo-9H-purin-8-yl)cinnamic acid] |  | > 100 |  | 
9 | Cn1c(=O)c2nc(-c3ccc(/C=C/C(=O)O)cc3)[nH]c2n(Cc2ccccc2)c1=O [Example 18, (E)-4-(3-benzyl-1,2,3,6-tetrahydro-1-methyl-2,6-dioxo-9H-purin-8-yl)cinnamic acid] |  | > 100 | 0.9 | 79.4
10 | CC(C)Cn1c(=O)c2nc(-c3ccc(/C=C/C(=O)O)cc3)[nH]c2n(CC(C)C)c1=O [Example 19, (E)-4-(1,2,3,6-tetrahydro-1,3-diisobutyl-2,6-dioxo-9H-purin-8-yl)cinnamic acid] |  |  | 1.0 | 35.5
11 | Cn1c(=O)c2[nH]cnc2n(C)c1=O [THEOPHYLLINE, 1,3-dimethylxanthine, reference compound] |  |  | 1.1 | 
